US20070275936A1, “Formulations and Treatment Methods” (priority 1998, published 2007)
“Also recorded” adds a separate entry of the source. Where two headings read alike, the source gives them in different places.

How the values were obtained:
[1] = Pharmacokinetics of BrEA after subcutaneous dose in rabbits; type: in vivo
Method: The nonaqueous BrEA formulation of example 1 was administered as a single subcutaneous dose to rabbits. […] The circulating half-life of the drug in the plasma was about twelve hours.
A pharmacokinetic analysis of ^14C BrEA was conducted in New Zealand White rabbits. Twenty μCi of ^14C 16α-bromo-3-beta-hydroxy-5α-[4-^14C]-androstan-17-one (50 mCi/mmole) plus 1 mg/kg unlabeled BrEA was administered to each of three New Zealand White rabbits as a subcutaneous injection in the scapular region using an injection volume of 1 mL/kg. The drug was formulated in 25% polyethylene glycol 300, 12.5% absolute ethanol, 5% benzyl benzoate, and qs with propylene glycol. Blood samples were taken at 0.5, 1, 2, 4, 8, 12, 24 hours for all three animals, and at 48 hours for two of the animals. Twenty-four and 48 hours after administration, one and two animals respectively, were sacrificed, and the following organs/tissues were collected: brain, heart, kidneys, liver, lungs, skeletal muscle, spleen, and injection site muscle and skin. In addition to the organs and tissues, urine and feces were collected as well as the cage wash.
The average percentages of the administered dose in whole blood was calculated by multiplying the concentration of drug in whole blood by the assumed volume of blood in the animals, 200 mL. The amount of drug in the blood reaches a maximum at around 8 hours, and a small amount was still evident at 48 hours.

HCV = HCV level by PCR in HIV/HCV infected patient dosed I.V. with BrEA; type: in vivo; settings: predosing 6.5
Method: A patient infected with HIV and HCV was dosed I.V. with BrEA for 3 consecutive days using a formulation that contained 20 mg/mL BrEA in 45% w/v hydroxypropyl-β-cyclodextrin and saline. Four mL of the formulation (80 mg BrEA) was administered to the patient every 4 hours during the 3 day treatment period. The patient's predosing HCV level was 6.5 Log10 as measured by PCR and the HCV level was 6.2 Log10 on the first day of dosing, 5.5 Log10 on the 3rd day of dosing and 4.9 Log10 three days after the last dose was administered. HIV RNA levels as measured by PCR was 5.2 Log10 (predosing), 5.8 Log10 (first day), 5.9 Log10 (third day) and 5.4 Log10 (day 6). The NK cell counts (cells/mm^3) were 28, 41 and 38 at predosing, day 0 and day 3.

Plasmodium falciparum = test: Inhibition of parasite growth in culture; type: cell-based
Method: The effect of Epi (16α-bromo-epiandrosterone) on parasite (Plasmodium falciparum) growth was shown. EPI was active at a concentration of 1 μM.
Parasitemias were determined by standard methods (microscopic inspection of at least 500 cells, stained with Diff-Quick™ (Baxter). Parasites were cultured under standard conditions in RPMI-1640 supplemented with Hepes/Glucose (10 mM), glutamine (0.3 g/liter) and 10% human plasma. The hematocrit was 1%.

[2] = Plasma pharmacokinetics of 14C BrEA in Rhesus Monkeys; type: in vivo; settings: 1 mg/kg s.c. 14C BrEA
Method: A pharmacokinetic analysis of ^14C BrEA in plasma was conducted in two female Rhesus Monkeys. Trace labeled compound (16α-bromo-3-beta-hydroxy-5α-[4-^14C]-androstan-17-one [50 mCi/mmole]) was used at a dose of 1 mg/kg as a subcutaneous injection in the scapular region using an injection volume of 1 mL/kg. The BrEA was formulated in 25% polyethylene glycol 300, 12.5% absolute ethanol, 5% benzyl benzoate, and qs with propylene glycol. 40 μCi were injected per animal. Blood samples were taken at 0, 0.5, 1, 2, 4, 8, and 24 hours for determination of ^14C activity. The radioactivity in the plasma rose to near peak concentration in 8 hours and remained at approximately the same level through the end of the study at 24 hours.

[3] = Pharmacokinetics of BrEA after subcutaneous dose in rats; type: in vivo; settings: for half-life: rat, plasma, sc, biphasic elimination
Method: BrEA was administered subcutaneously to rats using the formulation of example 1. Approximately 90% of the drug left the injection site within 24 hours of administration, and reached a maximum concentration in the plasma of about 0.2% of the injected dose at one hour post administration. Elimination from the plasma was biphasic, with half-lives of about 12 and 72 hours respectively. […] A study is also performed in Rhesus Monkeys with the example 1 formulation to determine plasma pharmacokinetics.

[4] = Animal 201, 24 hours, 1 mg/kg s.c.
[5] = Animal 301, 48 hours, 1 mg/kg s.c.
[6] = Animal 301, 48 hours, sample wt. 6 g
[7] = Animal 302, 48 hours, 1 mg/kg s.c.

With `C[C@]12CC[C@H](O)C[C@@H]1CC[C@@H]1[C@@H]2CC[C@]2(C)C(=O)[C@H](Br)C[C@@H]12` [BrEA, 16α-bromo-3β-hydroxy-5α-androstane-17-one] the “Percentage of Drug in Organs: Brain” value [1, 4] was 0.005%, the “Percentage of Drug in Organs: Heart” value [1, 4] was 0.008% and the “Percentage of Drug in Organs: Kidneys” value [1, 4] was 0.155%. For the same compound, the “Percentage of Drug in Organs: Liver” value [1, 4] was 0.76%, the “Percentage of Drug in Organs: Lungs” value [1, 4] was 0.029% and the “Percentage of Drug in Organs: Spleen” value [1, 4] was 0.002%. For the same compound, the “Percentage of Drug in Organs: Skeletal muscle” value (from here on “Percentage … Skeletal muscle”) ([1]; Animal 201, 24 hours, sample wt. 3.8 g) was 0.002%, the “Percentage of Drug in Organs: Skin” value ([1]; Animal 201, 24 hours, sample wt. 8 g) was 0.008% and the “Percentage of Drug in Organs: Brain” value [1, 5] was 0.002%. For the same compound, the “Percentage of Drug in Organs: Heart” value [1, 5] was 0.003%, the “Percentage of Drug in Organs: Kidneys” value [1, 5] was 0.055% and the “Percentage of Drug in Organs: Liver” value [1, 5] was 0.145%. The “Percentage of Drug in Organs: Lungs” value [1, 5] was 0.019%, the “Percentage of Drug in Organs: Spleen” value [1, 5] was 0% and the “Percentage … Skeletal muscle” value [1, 6] was 0%. For the same compound, the “Percentage of Drug in Organs: Skin” value [1, 6] was 0.002%, the “Percentage of Drug in Organs: Brain” value [1, 7] was 0% and the “Percentage of Drug in Organs: Heart” value [1, 7] was 0.002%. For the same compound, the “Percentage of Drug in Organs: Kidneys” value [1, 7] was 0.050%, the “Percentage of Drug in Organs: Liver” value [1, 7] was 0.125% and the “Percentage of Drug in Organs: Lungs” value [1, 7] was 0.011%. For the same compound, the “Percentage of Drug in Organs: Spleen” value [1, 7] was 0%, the “Percentage … Skeletal muscle” value ([1]; Animal 302, 48 hours, sample wt. 5 g) was 0% and the “Percentage of Drug in Organs: Skin” value ([1]; Animal 302, 48 hours, sample wt. 9 g) was 0.004%. The “time of maximum amount of drug in whole blood” value ([1]; rabbits, 1 mg/kg s.c.) was “around 8 hours”, the “drug in the liver” value ([1]; rabbits, 1 mg/kg s.c., 24 hours) was “approximately 0.8 % of the injected dose” and the “drug in the liver” value ([1]; rabbits, 1 mg/kg s.c., 48 hours) was ~0.12 % of the injected dose. For the same compound, the “drug in the liver, average” value ([1]; rabbits, 1 mg/kg s.c., average printed after the 48 hours value) was 0.13%, the accumulation in organs ([1]; rabbits, s.c. dose) was “did not accumulate to a significant extent in any major organ; also recorded: did not accumulate to a significant degree in any of the organs” and the route of excretion ([1]; rabbits, s.c. dose) was “primarily excreted in the urine”. For the same compound, the “circulating half-life of the drug in the plasma” value ([1]; rabbits, single s.c. dose) was “about twelve”, the “maximum concentration in the plasma” value ([1]; rabbits, single s.c. dose, at eight to twelve hours post administration) was “about 1.2 % of the injected dose” and the “drug left the injection site” value ([1]; rabbits, single subcutaneous dose, formulation of example 1, within 24 hours) was “More than 90%”. For the same compound, the “HCV level by PCR” value (HCV; 3rd day of dosing) was 5.5 Log10, the “HCV level by PCR” value (HCV; first day of dosing, 80 mg I.V. every 4 hours for 3 days) was 6.2 Log10 and the “HCV level by PCR” value (HCV; three days after the last dose) was 4.9 Log10. The Parasitemia after treatment (Plasmodium falciparum; 50 nM, 24 hrs, Time 0 2%, control + DMSO 8.80%) was 9.90%, the Parasitemia after treatment (Plasmodium falciparum; 50 nM, 48 hrs, Time 0 2%, control + DMSO 11%) was 9.20% and the Parasitemia after treatment (Plasmodium falciparum; 50 nM, 72 hrs, Time 0 2%, control + DMSO 8%) was 8.30%. It also gave a Parasitemia after treatment (Plasmodium falciparum; 1 μM, 24 hrs, Time 0 2%, control + DMSO 8.80%) of 5.80%, a Parasitemia after treatment (Plasmodium falciparum; 1 μM, 24 hrs, Time 0 5%, control + DMSO 5.40%) of 5.70% and a Parasitemia after treatment (Plasmodium falciparum; 1 μM, 48 hrs, Time 0 2%, control + DMSO 11%) of 6.10%. The Parasitemia after treatment (Plasmodium falciparum; 1 μM, 48 hrs, Time 0 5%, control + DMSO 3.10%) was 5.50%, the Parasitemia after treatment (Plasmodium falciparum; 1 μM, 72 hrs, Time 0 2%, control + DMSO 8%) was 2.10% and the Parasitemia after treatment (Plasmodium falciparum; 1 μM, 72 hrs, Time 0 5%, control + DMSO 5.20%) was 1.60%. The Parasitemia after treatment (Plasmodium falciparum; 2.5 μM, 24 hrs, Time 0 2%, control + DMSO 8.80%) was 7.30%, the Parasitemia after treatment (Plasmodium falciparum; 2.5 μM, 48 hrs, Time 0 2%, control + DMSO 11%) was 5.80% and the Parasitemia after treatment (Plasmodium falciparum; 2.5 μM, 72 hrs, Time 0 2%, control + DMSO 8%) was 3.20%. It also gave a Parasitemia after treatment (Plasmodium falciparum; 5 μM, 24 hrs, Time 0 2%, control + DMSO 8.80%) of 5.40%, a Parasitemia after treatment (Plasmodium falciparum; 5 μM, 48 hrs, Time 0 2%, control + DMSO 11%) of 6% and a Parasitemia after treatment (Plasmodium falciparum; 5 μM, 72 hrs, Time 0 2%, control + DMSO 8%) of 1.80%. It also gave a Parasitemia after treatment (Plasmodium falciparum; 10 μM, 24 hrs, Time 0 2%, control + DMSO 8.80%) of 4.20%, a Parasitemia after treatment (Plasmodium falciparum; 10 μM, 24 hrs, Time 0 5%, control + DMSO 5.40%) of 5.60% and a Parasitemia after treatment (Plasmodium falciparum; 10 μM, 48 hrs, Time 0 2%, control + DMSO 11%) of 3%. The Parasitemia after treatment (Plasmodium falciparum; 10 μM, 48 hrs, Time 0 5%, control + DMSO 3.10%) was 0.90%, the Parasitemia after treatment (Plasmodium falciparum; 10 μM, 72 hrs, Time 0 2%, control + DMSO 8%) was 0% and the Parasitemia after treatment (Plasmodium falciparum; 10 μM, 72 hrs, Time 0 5%, control + DMSO 5.20%) was 0%. The Parasitemia after treatment (Plasmodium falciparum; 50 μM, 24 hrs, Time 0 2%, control + DMSO 8.80%) was 0%, the Parasitemia after treatment (Plasmodium falciparum; 50 μM, 48 hrs, Time 0 2%, control + DMSO 11%) was 0% and the Parasitemia after treatment (Plasmodium falciparum; 50 μM, 72 hrs, Time 0 2%, control + DMSO 8%) was 0%. The Parasitemia after treatment (Plasmodium falciparum; 100 μM, 24 hrs, Time 0 5%, control + DMSO 5.40%) was 0%, the Parasitemia after treatment (Plasmodium falciparum; 100 μM, 48 hrs, Time 0 5%, control + DMSO 3.10%) was 0% and the Parasitemia after treatment (Plasmodium falciparum; 100 μM, 72 hrs, Time 0 5%, control + DMSO 5.20%) was 0%. It also gave a Parasitemia after treatment (Plasmodium falciparum; 500 μM, 24 hrs, Time 0 5%, control + DMSO 5.40%) of 0%, a Parasitemia after treatment (Plasmodium falciparum; 500 μM, 48 hrs, Time 0 5%, control + DMSO 3.10%) of 0% and a Parasitemia after treatment (Plasmodium falciparum; 500 μM, 72 hrs, Time 0 5%, control + DMSO 5.20%) of 0%. The “concentration at which active on parasite growth” value (Plasmodium falciparum; P. falciparum culture) was 1 µM, the “time for plasma radioactivity to rise to near peak concentration” value [2] was 8 h and the half-life ([3]; rats s.c., read-out: plasma elimination half-life, first phase (converted)) was roughly 12 h. The half-life ([3]; rats s.c., read-out: plasma elimination half-life, second phase (converted)) was roughly 72 h, the accumulation in organs ([3]; rats s.c.) was “did not accumulate to a significant extent in any major organ” and the route of excretion ([3]; rats s.c.) was “excreted primarily in the feces”. For the same compound, the “time of maximum concentration in the plasma” value ([3]; rats s.c.) was “one”, the “maximum concentration in the plasma” value ([3]; rats s.c., at one hour post administration) was “about 0.2 % of the injected dose” and the “drug left the injection site” value ([3]; rats, subcutaneous, formulation of example 1, within 24 hours) was “Approximately 90%”.
